How the values were obtained:
high-fat diet mice [1] = assay: anti-obesity experiment (PDT, body weight of mice fed with high-fat diet); format: in vivo, C57 Black mice; conditions: group 5: HFD + 2.5 mg/kg intraperitoneally + high-level LED irradiation (4.96 mW/cm^2, 10 min, 2.98 J/cm^2); compared with group 4 (low-level LED) and group 1 (HFD); FIG. 2
Experimental: (§1) 6-week-old C57 Black mice were purchased and were fed with normal diet for a week of environmental adaptation.
(§2) After feeding with normal diet for a week, these mice were randomly divided into 7 groups and tested. The body weight thereof was measured periodically (three times per week), and an anti-obesity experiment was conducted when the body weight was about 20% more than the initial body weight. The anti-obesity experiment was as follows.
For group 1, only high-fat diet (HFD) was provided and the body weight was periodically measured (HFD).
For group 2, only high-fat diet (HFD) was provided and the body weight was periodically measured, and the mice were placed in an LED-illuminated cage when the body weight thereof was about 20% or more than the initial body weight, followed by irradiation with low-level LED light.
For group 3, only high-fat diet (HFD) was provided and the body weight was periodically measured, and the mice were placed in an LED-illuminated cage when the body weight thereof was about 20% or more than the initial body weight, followed by irradiation with high-level LED light.
For group 4, only high-fat diet (HFD) was provided and the body weight was periodically measured, and when the body weight was about 20% or more than the initial body weight, trisodium Chlorin e6 (2.5 mg/kg) was dissolved in 200 μl of a saline solution and administered intraperitoneally. […]

mice = assay: toxicity detection (shape of whole body and internal organs after dissection); format: in vivo
Experimental: The mice treated with Chlorin e6 were tested for potential toxicity by observing the shape of the internal organs through dissection after killing.
The main concern in the development of medicaments or therapies is safety, and the safe use of medicaments means to effectively treat the disease with minimal or no toxicity in the body or parts of the body. Therefore, in the present experiment, the toxic effects of drugs and LED irradiation were examined. After the mice were dissected, the whole body and internal organs were examined in order to verify toxicity. […] It was observed that the liver was normal other than the fatty liver observed in the groups treated with HFD alone and LED alone (FIG. 6).

high-fat diet mice [2] = assay: lipid production and examination of non-alcoholic steatohepatitis (morphological examination of liver); format: in vivo, C57 Black mice; conditions: FIG. 3
Experimental: as §1, §2
For group 4, only high-fat diet (HFD) was provided and the body weight was periodically measured, and when the body weight was about 20% or more than the initial body weight, trisodium Chlorin e6 (2.5 mg/kg) was dissolved in 200 μl of a saline solution and administered intraperitoneally. After intraperitoneal administration thereof, the mice were allowed to adapt to a dark room for 3 hr and then placed in an LED-illuminated cage, followed by irradiation with low-level LED light.
For group 5, only high-fat diet (HFD) was provided and the body weight was periodically measured, and when the body weight was about 20% or more than the initial body weight, trisodium Chlorin e6 (2.5 mg/kg) was dissolved in 200 μl of a saline solution and administered intraperitoneally. […]

trisodium Chlorin e6
weight loss / reduction of percentage of weight gain (high-fat diet mice [1]): the most effective group
toxicity during treatment (mice; Chlorin e6 and LED irradiation in mice): Toxicity was not observed
internal organs after dissection (mice; mouse, in vivo): no bleeding, color change or gangrene in the intestines was observed
non-alcoholic steatohepatitis (NASH) (high-fat diet mice [2]; group 4: HFD + 2.5 mg/kg intraperitoneally + low-level LED irradiation (2.56 mW/cm^2, 5 min, 0.77 J/cm^2)): alleviated
non-alcoholic steatohepatitis (NASH) (high-fat diet mice [2]; group 5: HFD + 2.5 mg/kg intraperitoneally + high-level LED irradiation): alleviated
